Source: publication PMC6624297 (Cell Death & Disease, 2019)

How the values were obtained:
H460 cells [1] = test: Transwell migration and wound healing, H460; assay type: cell-based, human; details: H460, 0.5, 1.0, 1.5 μM, 24 h
Method: Cell migration ability was measured using transwell chambers (8-μm pore size; Corning Costar, Cambridge, MA, USA). For the transwell assay, A549 and H460 cells suspended in serum-free RPMI-1640 medium containing different concentrations of L14e (0, 0.5, 1.0, and 1.5 μM) were seeded into the upper chamber. The lower chamber contained RPMI-1640 medium supplemented with 20% serum. After 24 h incubation, the filters were fixed in methanol and stained with 0.1% crystal violet. The upper faces of the filters were gently abraded, and the lower faces with cells migrated across the filters were imaged and counted under the microscope. For wound healing assays, cells were placed into 6-well plates and cultured until 100% confluence. An artificial scratch was created using a 200 μL pipette tip. Add serum-free RPMI-1640 medium containing different concentrations of drugs. At 24 h after culturing in serum-free medium, wound closure images were captured in the same field under magnification. Cell healing rates were calculated by the fraction of cell coverage across the line. These experiments were performed in triplicate and repeated three times.

A549 cells [2] = test: MTT assay A549; assay type: cell-based, human
Method: (§1) Details are given in Supplementary Materials and Methods. Using probability unit and weighted regression method to calculate the IC50 value of compounds.
(§2) Total cells in the logarithmic growth phase were collected, digested using 0.25% pancreatic enzymes, and then diluted into single-cell suspensions using phosphate-buffered solution (PBS). These cells were seeded into 96-well plates at 4× 10^3-5× 10^3 cells per well (100 µL per well) and then A549, H460, OVCAR-3, SGC7901, MDA-MB-231, HCT116 and HepG2 were cultured at 37°Cin an incubator containing 5% CO2. After cell complete attachment, 100 µL of different concentrations of compounds (0.625 μM, 1.25 μM, 2.5μM, 5 μM, 10 μM) were added to the cells after the nutrient solution in each well was discarded, while no compound except 0.1% DMSO was added to cells in the control group; at the same time, each concentration was set up to 5 wells. In addition, 5 wells in each 96-well plate only received 100 µL of nutrient solution as a blank control. The plates were taken out after the cells were incubated with compounds for 24 h, and 20 µL of MTT solution (5 mg/mL) (Wuhan Boster Biotechnology Limited Company, Wuhan, China; item No. AR1156) was added into all the wells. After another time of incubation for 4 h at 37 °C, the nutrient solution in each well was discarded slowly, and 150 µL of DMSO was added to each well. The plates were shaken on a shaking table for 20 min. When the crystals were fully dissolved, the blank wells were used to zero the plate reader. The optical density (OD) of each well was detected at 490 nm. The IC50 value was determined as the concentration of the inhibitor that caused 50% inhibition. Using probability unit and weighted regression method to calculate the IC50 value of compounds.

A549 cells [3] = test: Annexin V/PI staining flow cytometry, A549; assay type: cell-based, human; details: 24 h
Method: The density of the A549 cells and H460 in the logarithmic growth phase was adjusted to 1 × 10^6 cells/mL, and a total of 1 mL of cell suspension and 1 mL of L14e at different concentrations were added into each well with the final compound L14e concentration in each group as 0, 0.5, 1.0, and 1.5 μM. Details are given in Supplementary Materials and Methods.
The density of the A549 cells and H460 in the logarithmic growth phase was adjusted to 1 × 10^6 cells/mL, and then the cell suspension was seeded into a 6-well plate (Becton Dickinson and Company, USA). A total of 1 mL of cell suspension and 1 mL of compound L14e at different concentrations were added into each well with the final compound L14e concentration in each group as 0 μM, 0.5 μM, 1.0 μM, and 1.5μM. After cells were incubated for 24 h at 37 °C, 1 mL of cell suspension per well was collected and centrifuged at 1000 r/min for 10 min at 4°C, and the supernatant was removed. Then, 1 mL of cold PBS was added to the cell pellet, and was shaken lightly to re-suspend the cells. The cells were centrifuged at 1000 r/min at 4 °C for 10 min, and the supernatant was removed. These steps were repeated twice. The cells were re-suspended in 150µL of PBS, 10 µL of fluorescein isothiocyanate (FITC)-labeled Annexin V (Annexin V-FITC) (Promega Corporation, USA) and 5 µL of PI (Promega Corporation, USA) were added. The mixture was gently mixed and incubated in the dark at room temperature for 10 min then stained cells were analyzed using flow cytometry to test the levels of apoptotic cells (Becton Dickinson and Company, USA; FACS Calibur).

HCT-116 cells = test: MTT assay HCT-116; assay type: cell-based; details: Homo sapiens, 24h of treatment, mean ± SD
Method: as §1, §2

H460 cells [4] = test: Cell cycle PI staining FACS, H460; assay type: cell-based, human; details: H460, 0.5, 1.0, 1.5 μM, 24 h
Description: TS is a crucial enzyme in the DNA synthesis stage. When it is inhibited, first to show cell cycle arrest at G1/S phase. […] Flow cytometry show (Fig. 3), as the concentration of the compound increases, the cells in the G0/G1 phase increase, the cells in the S phase and the G2/M phase decrease. Eventually, the proliferation of cancer cells was inhibited by the G1/S phase arrest of the compound L14e.

**Q.** Which results are given for `O=C(Nc1cccc(Cl)c1)Nc1ccccc1NS(=O)(=O)c1c[nH]c(=O)[nH]c1=O` [Compound L14e, N'-(3-chlorophenyl)-2-(2,4-dihydroxypyrimidine-5-sulfonamido)phenyl urea]?
**A.** effect on cell migration (H460 cells [1]): significantly inhibited the migration; anti-proliferative potency relative to PTX, A549 (A549 cells [2]): nearly five times higher; IC50 (A549 cells [2]; Homo sapiens, A549, 24h of treatment, mean ± SD): 0.67 ± 0.22 µM; apoptotic rate (A549 cells [3]; A549, 0.5 μM): 19.3%; late apoptosis rate (Q2, Annexin V [+] PI [+]) (A549 cells [3]; A549, 0.5 μM): 17.7%; late apoptosis rate (Q2, Annexin V [+] PI [+]) (A549 cells [3]; A549, 1.0 μM): 27.5%; apoptotic rate (A549 cells [3]; A549, 1.5 μM): 43.5%; late apoptosis rate (Q2, Annexin V [+] PI [+]) (A549 cells [3]; A549, 1.5 μM): 37.1%; IC50 (HCT-116 cells): 1.98 ± 0.18 µM; effect on cell cycle (H460 cells [4]): arrest the cell cycle in the G1/S phase
